According to patent US4048305A, “Tripeptides, their esters and amides, and anti-ulcera activity thereof” (Dr. L. Zambeletti S.p.A., priority 1975, dated 1977):
Square brackets hold non-standard residues; d marks the D form. Peptide text beside a SMILES is read from it.

How the values were obtained:
[1] = system: "Swiss" strain male mouse; test: Acute toxicity (lethality) in mouse, oral; format: in vivo; details: for Mouse LD50: Swiss male mouse, fasted 15 hours, suspended in peanut oil, gastric probe
Protocol: The acute toxicity was assayed in "Swiss" strain male mouse weighing 20-24 g. which were held, before the test, in the cages for 10 days at standard ambient conditions (temperature 22° C, humidity about 50%) and kept on a controlled diet (Altromin).
Before the test, the animals were deprived of food for 15 hours, while leaving water "ad libitum".
Lethality was determined on 10 animals for each group-dose by using on the whole 60 animals for each product. For administration, the products were suspended into peanut oil and administered at the maximum volume of 0.1 ml/10 g. of body weight, by means of a gastric probe.

[2] = system: female rats of "Wistar" strain; test: Gastro-protective activity, Shay method (pylorus tying) in rats; format: in vivo, rat; details: 100 mg/Kg in peanut oil, 18 hours after administration; for Rat (Shay test) Ulcer depth M ± es: arbitrary values 1 to 4, peanut oil controls 2.4 ± 0.5; for Rat (Shay test) No. of ulcers M ± es: ulcers in the rumen, peanut oil controls 10.7 ± 2.2
Protocol: Gastro-protective activity of the products was assayed on rats by employing the Shay method (Shay H., Komarov, S. A., Fels, S. S., Meranze, D;, Gruenstein, M. and Siplet, H:Gastroenterology, 5, 43-61, 1945).
The investigation was performed on female rats of "Wistar" strain, of the average weight of 200 g., which had been held, before experiment, in the cages for 10 days at standard ambient conditions (temperature 22° C, humidity about 50%) on a controlled diet (Altromin).
72 hours before the test the animals, distributed into individual cages, were deprived of food while leaving water "ad libitum".
At the end of this time, the animals were anaesthetized with ether and, by opening the abdomen, the tying of the pylorus was effected as well as, thereafter, the administration of the products in the dose of 100 mg/Kg dissolved into peanut oil. The suture of the abdomen was then performed and the animals were then placed again into their respective contention cages.
For each product 15 animals were used whilst another set of 15 animals, which served as control, was given peanut oil at the same volume as that of the treated ones.
After 18 hours from administration of the products, the animals were killed under chloroformic narcosis, the stomachs were removed and opened along the greter curvature and then fixed on cork supports for counting the number of ulcers present in the "rumen" and for evaluating the depth of the lesions by arbitrarily assigning values ranging from 1 to 4 according to the intensity of the lesion.

`COC(=O)C(Cc1c[nH]cn1)NC(=O)C(Cc1ccccc1)NC(=O)C(Cc1ccccc1)NC(C)=O` (mixture of isomers) [N-acetyl-dl-phenylalanyl-dl-phenylalanyl-dl-histidine methylester] was tested, and the “Mouse LD50” value [1] was over 5000 mg/Kg/os, the “Rat (Shay test) Ulcer depth M ± es” value [2] was 1.7 ± 0.2 and the “Rat (Shay test) No. of ulcers M ± es” value [2] was 6.7 ± 1.7.

With `COC(=O)[C@H](Cc1c[nH]cn1)NC(=O)[C@@H](Cc1ccccc1)NC(=O)[C@H](Cc1ccccc1)NC(C)=O` [N-acetyl-l-phenylalanyl-d-phenylalanyl-l-histidine-methylester] the “Mouse LD50” value [1] was over 5000 mg/Kg/os, the “Rat (Shay test) Ulcer depth M ± es” value [2] was 1.5 ± 0.4 and the “Rat (Shay test) No. of ulcers M ± es” value [2] was 5.6 ± 1.5.

With `CC(=O)N[C@@H](Cc1ccccc1)C(=O)N[C@H](Cc1ccccc1)C(=O)N[C@@H](Cc1c[nH]cn1)C(N)=O` [N-acetyl-l-phenylalanyl-d-phenylalanyl-l-histidineamide] (Ac-Phe-[dF]-His-NH2) the “Mouse LD50” value [1] was over 5000 mg/Kg/os, the “Rat (Shay test) Ulcer depth M ± es” value [2] was 1.3 ± 0.2 and the “Rat (Shay test) No. of ulcers M ± es” value [2] was 6.2 ± 1.6.

With `CNC(=O)[C@H](Cc1c[nH]cn1)NC(=O)[C@H](Cc1ccccc1)NC(=O)[C@H](Cc1ccccc1)NC(C)=O` [N-acetyl-l-phenylalanyl-l-phenylalanyl-l-histidine methylamide] (Ac-Phe-Phe-His-NHMe) the “Mouse LD50” value [1] was over 5000 mg/Kg/os, the “Rat (Shay test) Ulcer depth M ± es” value [2] was 1.4 ± 0.3 and the “Rat (Shay test) No. of ulcers M ± es” value [2] was 5.8 ± 1.4.

`COC(=O)[C@H](Cc1c[nH]cn1)NC(=O)[C@H](Cc1ccccc1)NC(=O)[C@H](Cc1ccccc1)NC(C)=O` [N-acetyl-l-phenylalanyl-l-phenylalanyl-l-histidine methylester] was tested, and the “Mouse LD50” value [1] was over 5000 mg/Kg/os, the “Rat (Shay test) Ulcer depth M ± es” value [2] was 1.1 ± 0.3 and the “Rat (Shay test) No. of ulcers M ± es” value [2] was 4.6 ± 1.1.

In the case of `CC(=O)N[C@@H](Cc1ccccc1)C(=O)N[C@@H](Cc1ccccc1)C(=O)N[C@@H](Cc1c[nH]cn1)C(=O)O` [N-acetyl-l-phenylalanyl-l-phenylalanyl-l-histidine] (Ac-Phe-Phe-His-OH), the “Mouse LD50” value [1] is reported as at least 5000 mg/Kg/os, the LD50 ([1]; mouse, oral, in peanut oil) is reported as “approximately 5 g./Kg” and the “Rat (Shay test) Ulcer depth M ± es” value [2] is reported as 2.1 ± 0.3. For the same molecule, the “Rat (Shay test) No. of ulcers M ± es” value [2] was 8.4 ± 1.8.

In the case of `CC(=O)N[C@@H](Cc1ccccc1)C(=O)N[C@@H](Cc1ccccc1)C(=O)N[C@@H](Cc1c[nH]cn1)C(N)=O` [N-acetyl-l-phenylalanyl-l-phenylalanyl-l-histidineamide] (Ac-Phe-Phe-His-NH2), the “Mouse LD50” value [1] is reported as over 5000 mg/Kg/os, the “Rat (Shay test) Ulcer depth M ± es” value [2] is reported as 1.1 ± 0.4 and the “Rat (Shay test) No. of ulcers M ± es” value [2] is reported as 3.1 ± 1.7.
